The structures appear in SMILES notation.

This passage reports mortality and inhibition results from patent publication US11116218B2, “Isoxazole compound or a salt thereof” (OAT AGRIO CO., LTD., priority 2017, dated 2021).

The test system of assay [1] is two-spotted spider mites. The assay is described as follows: Miticidal test on two-spotted spider mite (leaf spray). The format is in vivo. Particulars: Tetranychus urticae, in Phaseolus vulgaris, 48 h, read-out: Mortality of mites (%). The source says:
A piece of non-woven fabric (4.5×5.5 cm) was suspended inside a plastic cup through an incision made in the lid of the plastic cup. After water was poured into the cup, the cup was covered with the lid. A kidney bean leaf (about 3.5×4.5 cm) was then placed on the sufficiently soaked, non-woven fabric. Another kidney bean leaf with two-spotted spider mites (about 30 mite samples) was placed on top of the first leaf, and the fabric and leaves were placed in a thermostatic chamber having a temperature of 25±2° C. and a humidity of 40% overnight. Next morning the top leaf was removed as the mite population had already moved to the lower leaf.
Miticidal formulations containing the compound of the invention (100 ppm and 5 ppm) were prepared by adding an aqueous solution (100 ppm) of Sorpol 355 (manufactured by Tobo Kagaku Co., Ltd.) to a methanol solution of the compound of the invention. These miticidal formulations were sprayed onto the leaves, and the leaves were air-dried and placed in a thermostatic chamber (25±2° C. and a humidity of 50%). The mortality rate of the two-spotted spider mites was calculated after 2 days.

Assay [2] deals with two-spotted spider mites. The assay is described as follows: Ovicidal test on two-spotted spider mites. Conditions: Tetranychus urticae, 144 h; 10 ppm spray, ovicidal rate 6 days after spraying. Type of assay: in vivo, two-spotted spider mite. The protocol: A piece of non-woven fabric (4.5×5.5 cm) was suspended inside a plastic cup through an incision made in the lid of the plastic cup. After water was poured into the cup, the cup was covered with the lid. A kidney bean leaf (about 3.5×4.5 cm) was then placed on the sufficiently soaked, non-woven fabric. Twenty female adults of two-spotted spider mite were placed on the top of the leaf, and the fabric and leaf were placed in a thermostatic chamber having a temperature of 25±2° C. and a humidity of 40% and 16L8D. The next day, after the number of the female adults was adjusted once more to 20, 2 mL of a miticidal formulation containing the compound of the invention (10 ppm) prepared in the same manner as in test example 1 was sprayed onto the leaf, and the leaf was air-dried and placed in a thermostatic chamber (25±2° C. and a humidity of 50%). The ovicidal rate of the two-spotted spider mites was calculated 6 days after the spraying of the miticidal formulation.

With `Cc1cc(F)c(-c2cc(C(F)(F)F)on2)cc1SCC(F)(F)F` [Compound 1, 3-(2-fluoro-4-methyl-5-((2,2,2-trifluoroethyl)thio)phenyl)-5-(trifluoromethyl)isoxazole], in the assay on two-spotted spider mites [1], the mortality – broadly, the share of the test organisms that died – at 5 ppm was 30% and the mortality at 100 ppm stood at 100%.

As to `Cc1cc(F)c(-c2cc(C(F)(F)F)on2)cc1[S+]([O-])CC(F)(F)F` (stereo not drawn) [Compound 2, 3-(2-fluoro-4-methyl-5-((2,2,2-trifluoroethyl)sulfinyl)phenyl)-5-(trifluoromethyl)isoxazole], in the assay on two-spotted spider mites [2], the inhibition (as a rule, the share of the control response that was lost under treatment) at 10 ppm was 100%. In the assay with two-spotted spider mites [1], the mortality at 5 ppm amounted to 100% and the mortality at 100 ppm was found to be 100%.

In the assay with two-spotted spider mites [2], `Cc1cc(F)c(-c2cc(C(F)(F)C(F)(F)F)on2)cc1[S+]([O-])CC(F)(F)F` (stereo not drawn) [Compound 5, 3-(2-fluoro-4-methyl-5-((2,2,2-trifluoroethyl)sulfinyl)phenyl)-5-(perfluoroethyl)isoxazole] had an inhibition at 10 ppm of 90%. Moreover, in the assay with two-spotted spider mites [1], the mortality at 5 ppm is 95% and the mortality at 100 ppm was determined as 100%.

`Cc1cc(F)c(-c2cc(C(F)(F)C(F)(F)C(F)(F)F)on2)cc1[S+]([O-])CC(F)(F)F` (stereo not drawn) [Compound 8, 3-(2-fluoro-4-methyl-5-((2,2,2-trifluoroethyl)sulfinyl)phenyl)-5-(heptafluoropropyl)isoxazole]: at 10 ppm the inhibition with two-spotted spider mites [2] was 90%. Besides, in the assay on two-spotted spider mites [1], the mortality at 5 ppm was found to be 100% and the mortality at 100 ppm stood at 100%.

`Cc1cc(F)c(-c2cc(C(F)F)on2)cc1SCC(F)(F)F` [Compound 13, 5-(difluoromethyl)-3-(2-fluoro-4-methyl-5-((2,2,2-trifluoroethyl)thio)phenyl)isoxazole] gave an inhibition at 10 ppm with two-spotted spider mites [2] of 98%. Moreover, in the assay with two-spotted spider mites [1], the mortality at 5 ppm was found to be 48% and the mortality at 100 ppm is 100%.

`Cc1cc(F)c(-c2cc(C(F)F)on2)cc1[S+]([O-])CC(F)(F)F` (stereo not drawn) [Compound 14, 5-(difluoromethyl)-3-(2-fluoro-4-methyl-5-((2,2,2-trifluoroethyl)sulfinyl)phenyl)isoxazole] displayed an inhibition at 10 ppm with two-spotted spider mites [2] of 50%. Further, in the assay on two-spotted spider mites [1], the mortality at 5 ppm was 40% and the mortality at 100 ppm is 100%.

The compound `Cc1cc(F)c(-c2cc(C(F)(F)Cl)on2)cc1[S+]([O-])CC(F)(F)F` (stereo not drawn) [Compound 17, 5-(chlorodifluoromethyl)-3-(2-fluoro-4-methyl-5-((2,2,2-trifluoroethyl)sulfinyl)phenyl)isoxazole] gave an inhibition at 10 ppm with two-spotted spider mites [2] of 100%. For the same compound, in the assay on two-spotted spider mites [1], the mortality at 5 ppm is 98% and the mortality at 100 ppm is 100%.

For the compound `Cc1cc(F)c(-c2cc(C(F)(F)c3ccccc3)on2)cc1SCC(F)(F)F` [Compound 19, 5-(difluoro(phenyl)methyl)-3-(2-fluoro-4-methyl-5-((2,2,2-trifluoroethyl)thio)phenyl)isoxazole], 10 ppm produced 100% inhibition in the assay on two-spotted spider mites [2]. For the same compound, in the assay with two-spotted spider mites [1], the mortality at 5 ppm is 100% and the mortality at 100 ppm was determined as 100%.

In turn, `Cc1cc(F)c(-c2cc(C(F)(F)c3ccccc3)on2)cc1[S+]([O-])CC(F)(F)F` (stereo not drawn) [Compound 20, 5-(difluoro(phenyl)methyl)-3-(2-fluoro-4-methyl-5-((2,2,2-trifluoroethyl)sulfinyl)phenyl)isoxazole] had an inhibition at 10 ppm with two-spotted spider mites [2] of 95%. In the assay with two-spotted spider mites [1], the mortality at 5 ppm is 93% and the mortality at 100 ppm came out at 100%.

For `Cc1cc(Cl)c(-c2cc(C(F)(F)F)on2)cc1SCC(F)(F)F` [Compound 22, 3-(2-chloro-4-methyl-5-((2,2,2-trifluoroethyl)thio)phenyl)-5-(trifluoromethyl)isoxazole], in the assay with two-spotted spider mites [1], the mortality at 5 ppm worked out at 73% and the mortality at 100 ppm was determined as 100%.

As for `Cc1cc(Cl)c(-c2cc(C(F)(F)F)on2)cc1[S+]([O-])CC(F)(F)F` (stereo not drawn) [Compound 23, 3-(2-chloro-4-methyl-5-((2,2,2-trifluoroethyl)sulfinyl)phenyl)-5-(trifluoromethyl)isoxazole], in the assay with two-spotted spider mites [2], at 10 ppm the inhibition was 100%. Moreover, in the assay with two-spotted spider mites [1], the mortality at 5 ppm stood at 100% and the mortality at 100 ppm was found to be 100%.

Take `Cc1cc(C)c(-c2cc(C(F)(F)F)on2)cc1SCC(F)(F)F` [Compound 25, 3-(2,4-dimethyl-5-((2,2,2-trifluoroethyl)thio)phenyl)-5-(trifluoromethyl)isoxazole]: in the assay with two-spotted spider mites [1], the mortality at 5 ppm turned out to be 10% and the mortality at 100 ppm is 100%.

Regarding `Cc1cc(C)c([S+]([O-])CC(F)(F)F)cc1-c1cc(C(F)(F)F)on1` (stereo not drawn) [Compound 26, 3-(2,4-dimethyl-5-((2,2,2-trifluoroethyl)sulfinyl)phenyl)-5-(trifluoromethyl)isoxazole], the inhibition at 10 ppm in the assay with two-spotted spider mites [2] is 90%. Moreover, in the assay on two-spotted spider mites [1], the mortality at 5 ppm is 98% and the mortality at 100 ppm is 100%.

Take `CCC[S+]([O-])c1cc(-c2cc(C(F)(F)F)on2)c(F)cc1C` (stereo not drawn) [Compound 35, 3-(2-fluoro-4-methyl-5-(propylsulfinyl)phenyl)-5-(trifluoromethyl)isoxazole]: in the assay on two-spotted spider mites [2], testing at 10 ppm gave an inhibition of 100%. In the assay on two-spotted spider mites [1], the mortality at 5 ppm was 100% and the mortality at 100 ppm was 100%.

On to `Cc1cc(F)c(-c2noc(C(F)(F)F)c2C)cc1[S+]([O-])CC(F)(F)F` (stereo not drawn) [Compound 38, 3-(2-fluoro-4-methyl-5-((2,2,2-trifluoroethyl)sulfinyl)phenyl)-4-methyl-5-(trifluoromethyl)isoxazole], for which, in the assay on two-spotted spider mites [2], 10 ppm produced 100% inhibition. For the same compound, in the assay with two-spotted spider mites [1], the mortality at 5 ppm stood at 100% and the mortality at 100 ppm is 100%.

Regarding `Cc1cc(C)c(-c2cc(C(F)(F)c3ccccc3)on2)cc1SCC(F)(F)F` [Compound 40, 5-(difluoro(phenyl)methyl)-3-(2,4-dimethyl-5-((2,2,2-trifluoroethyl)thio)phenyl)isoxazole], the inhibition at 10 ppm with two-spotted spider mites [2] was 89%. In the assay with two-spotted spider mites [1], the mortality at 5 ppm was determined as 33% and the mortality at 100 ppm stood at 100%.

For the compound `Cc1cc(Cl)c(-c2cc(C(F)(F)Cl)on2)cc1SCC(F)(F)F` [Compound 43, 3-(2-chloro-4-methyl-5-((2,2,2-trifluoroethyl)thio)phenyl)-5-(chlorodifluoromethyl)isoxazole], in the assay with two-spotted spider mites [2], testing at 10 ppm gave an inhibition of 100%. In addition, in the assay with two-spotted spider mites [1], the mortality at 5 ppm worked out at 100% and the mortality at 100 ppm is 100%.

The compound `Cc1cc(Cl)c(-c2cc(C(F)(F)Cl)on2)cc1[S+]([O-])CC(F)(F)F` (stereo not drawn) [Compound 44, 3-(2-chloro-4-methyl-5-((2,2,2-trifluoroethyl)sulfinyl)phenyl)-5-(chlorodifluoromethyl)isoxazole] yielded an inhibition at 10 ppm in the assay on two-spotted spider mites [2] of 100%. Moreover, in the assay on two-spotted spider mites [1], the mortality at 5 ppm is 100% and the mortality at 100 ppm came to 100%.

Take `Cc1cc(C)c(-c2cc(C(F)F)on2)cc1SCC(F)(F)F` [Compound 46, 5-(difluoromethyl)-3-(2,4-dimethyl-5-((2,2,2-trifluoroethyl)thio)phenyl)isoxazole]: testing at 10 ppm in the assay with two-spotted spider mites [2] gave an inhibition of 83%. In the assay with two-spotted spider mites [1], the mortality at 5 ppm came to 79% and the mortality at 100 ppm came out at 100%.

The compound `Cc1cc(C)c([S+]([O-])CC(F)(F)F)cc1-c1cc(C(F)F)on1` (stereo not drawn) [Compound 47, 5-(difluoromethyl)-3-(2,4-dimethyl-5-((2,2,2-trifluoroethyl)sulfinyl)phenyl)isoxazole] displayed an inhibition at 10 ppm with two-spotted spider mites [2] of 80%. In addition, in the assay on two-spotted spider mites [1], the mortality at 5 ppm amounted to 51% and the mortality at 100 ppm is 100%.
